Biological target: Dipeptidyl peptidase 4 (Homo sapiens) (UniProt P27487)
Sequence (P27487 whole entry, looked up): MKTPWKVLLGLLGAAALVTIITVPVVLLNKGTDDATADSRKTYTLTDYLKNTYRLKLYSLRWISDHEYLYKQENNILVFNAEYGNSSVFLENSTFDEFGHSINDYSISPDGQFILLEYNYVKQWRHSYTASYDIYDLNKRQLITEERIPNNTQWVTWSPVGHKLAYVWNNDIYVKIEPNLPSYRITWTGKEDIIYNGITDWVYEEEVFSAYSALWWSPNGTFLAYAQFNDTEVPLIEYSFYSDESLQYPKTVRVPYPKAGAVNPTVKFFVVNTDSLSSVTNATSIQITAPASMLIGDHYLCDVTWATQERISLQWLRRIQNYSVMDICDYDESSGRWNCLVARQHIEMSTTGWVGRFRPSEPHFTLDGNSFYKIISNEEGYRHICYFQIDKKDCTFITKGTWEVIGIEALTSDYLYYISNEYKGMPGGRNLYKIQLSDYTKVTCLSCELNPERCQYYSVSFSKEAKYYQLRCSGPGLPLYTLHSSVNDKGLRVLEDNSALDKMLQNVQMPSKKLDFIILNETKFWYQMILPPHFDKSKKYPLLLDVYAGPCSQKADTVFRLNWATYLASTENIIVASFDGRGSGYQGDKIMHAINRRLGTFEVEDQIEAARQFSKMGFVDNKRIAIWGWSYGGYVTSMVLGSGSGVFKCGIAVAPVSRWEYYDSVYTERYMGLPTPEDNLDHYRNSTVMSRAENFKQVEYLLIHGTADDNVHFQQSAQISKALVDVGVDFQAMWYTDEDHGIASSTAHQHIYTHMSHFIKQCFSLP
Description: Inhibition of human seminal fluid DPP4

Work on NC(=O)c1cccc(CN2CC3CN(C(=O)C[C@H](N)Cc4cc(F)c(F)cc4F)CCN3C2=O)c1 (stereo partly specified) yielded an IC50 of 78 nM.

— ChEMBL document CHEMBL1275279, “Synthesis, biological assay in vitro and molecular docking studies of new imidazopyrazinone derivatives as potential dipeptidyl peptidase IV inhibitors” (Eur J Med Chem, 2010)
